Results published in publication PMC5842505, “Allosteric Inhibition of Serotonin 5-HT7 Receptors by Zinc Ions” (Molecular Neurobiology, 2017).
Read-outs that look alike come from different tables or passages of the source.

Legend:
human 5-HT7 receptor [1] = target: T1, human 5-HT7 receptor (Homo sapiens, UniProt P34969); test: Screen of monovalent and divalent cations on radioligand binding; details: for decrease in radioligand binding relative to the control: higher cation concentration (5 mM)
T1 sequence (P34969 1-432 limits assumed): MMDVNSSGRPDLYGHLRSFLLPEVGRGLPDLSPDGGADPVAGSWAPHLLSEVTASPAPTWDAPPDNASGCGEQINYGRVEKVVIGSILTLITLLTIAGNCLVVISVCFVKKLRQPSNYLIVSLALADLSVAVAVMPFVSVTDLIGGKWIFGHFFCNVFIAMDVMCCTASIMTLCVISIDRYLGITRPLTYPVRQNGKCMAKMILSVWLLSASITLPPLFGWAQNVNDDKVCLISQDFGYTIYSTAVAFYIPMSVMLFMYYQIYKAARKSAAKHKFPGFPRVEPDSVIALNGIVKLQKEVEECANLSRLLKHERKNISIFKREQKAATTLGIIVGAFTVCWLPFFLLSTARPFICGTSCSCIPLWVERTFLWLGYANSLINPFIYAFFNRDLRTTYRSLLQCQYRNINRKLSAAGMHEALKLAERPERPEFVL
Description: Non-specific binding was defined by the binding obtained in the presence of 10 μM 5-HT. The incubation buffer consisted of 50 mM Tris–HCl (pH 7.7), 4 mM MgCl2, 10 μM pargyline, and 0.1% ascorbic acid. The binding reactions were stopped by filtration through GF/B UniFilter plates using a harvester (PerkinElmer). The plate filters were then dried, and 20 μl of Ultima Gold MV (PerkinElmer) was added. Radioactivity was measured using a MicroBeta TriLux counter (PerkinElmer).
Initially, different monovalent and divalent cations (Na^+, K^+, Mg^2+, Ca^2+, and Zn^2+) were screened at concentrations of 500 μM and 5 mM to assess whether they had any effects on the 5-HT7 receptor (Fig. 1).
The binding of radioligands in the absence of the tested cations is referred to as basal specific binding and was set to 100% (dotted line)

human 5-HT7 receptor [2] = target: T1, human 5-HT7 receptor; test: Saturation radioligand binding in the absence and presence of Zn2+; parameters: The full-length human 5-HT7b receptor complementary DNA (cDNA); details: non-linear regression, Eq. 1
Description: (§1) HEK293 cells stably expressing the human 5-HT7b receptor were grown in Dulbecco’s Modified Eagle’s Medium (DMEM) (Lonza, Basel, Switzerland) supplemented with 10% dialyzed fetal bovine serum (FBS) (Lonza) and 500 μg/ml G418 sulfate (Sigma-Aldrich) at 37 °C in a humidified atmosphere with 5% CO2. For the membrane preparations, the cells were sub-cultured in 150-cm^2 flasks, grown to 90% confluence, washed twice with phosphate-buffered saline (PBS) pre-warmed to 37 °C, and pelleted by centrifugation (200×g for 5 min) in PBS containing 0.1 mM ethylenediaminetetraacetic acid (EDTA) and 1 mM dithiothreitol (DTT). Prior to the membrane preparation, the pellets were frozen at −80 °C. For the functional experiments, the cells were sub-cultured in 75-cm^2 flasks, grown to 90% confluence, washed twice with PBS pre-warmed to 37 °C, and pelleted by centrifugation (180×g) in PBS containing 0.5 mM EDTA. The supernatant was aspirated, and the cell pellet was resuspended in stimulation buffer (1× HBSS, 5 mM HEPES, 0.5 mM IBMX, 0.1% BSA).
(§2) Cell pellets were thawed and homogenized in 10 volumes of 50 mM Tris–HCl buffer (pH 7.7) containing 0.1 mM EDTA, using an Ultra Turrax tissue homogenizer. The pellets were centrifuged twice at 35,000×g for 20 min at 4 °C, with 15-min incubation at 37 °C between centrifugations. The pellets were then resuspended in the incubation buffer as described below for the radioligand binding assays. The membrane protein concentrations were determined using the Pierce™ Coomassie (Bradford) Protein Assay Kit (Thermo Fisher Scientific, Waltham, USA), with bovine serum albumin (BSA) as the standard.
(§3) Data from the saturation (K D), competition binding (K i), and kinetic experiments (koff/offobs) were fitted to a one- or two-site model, and the models were compared using an F test (extra sum-of-squares test).

5-HT1A receptor = system: 5-HT1A receptor; parameters: method as in PMID 26660328; details: cited from earlier work
human 5-HT7b receptor = target: T2, human 5-HT7b receptor (Homo sapiens, UniProt P34969); test: LANCE cAMP functional assay in HEK293 cells expressing the 5-HT7 receptor; type: cell-based; details: for effect on constitutive (unstimulated cAMP) activity: constitutively active 5-HT7 HEK293 cell line; for K B: antagonist vs 10 nM 5-CT
T2 construct: The full-length human 5-HT7b receptor complementary DNA (cDNA)
T2 sequence (P34969 1-432 limits assumed): as above
Description: as §1
Each compound was tested at eight concentrations ranging from 0.01 nM to 100 μM. The total level of cAMP was measured using the LANCE cAMP detection kit (PerkinElmer) according to the manufacturer’s recommendations. To quantify the cAMP levels, 200 or 1000 (for measuring constitutive activity) cells/well (5 μl) were incubated with compounds (5 μl) for 30 min at room temperature in a 384-well white opaque microtiter plate. After incubation, 10 μl of the working solution (5 μl Eu-cAMP and 5 μl ULight-anti-cAMP) was added to induce cell lysis and terminate the reaction. The assay plate was incubated for 1 h at room temperature. The time-resolved fluorescence resonance energy transfer (TR-FRET) signal was detected using an Infinite M1000 PRO (Tecan, Männedorf, Switzerland) with instrument settings from the LANCE cAMP detection kit manual.
The derivation of the Cheng–Prusoff equation was applied for the analysis of antagonist functional inhibition curves

human 5-HT7 receptor [3] = target: T1, human 5-HT7 receptor; test: Competition radioligand binding (orthosteric ligands ± Zn2+; Zn2+ titration curves); parameters: The full-length human 5-HT7b receptor complementary DNA (cDNA); details: read-out: IC50 for inhibiting radioligand binding
Description: as §2, §3
For the competition binding assay, the affinity constant values (K i) were calculated using the Cheng–Prusoff equation (Eq. 2): […]

HEK293 cells = details: 30-min exposure, MTT and LDH tests
Description: To estimate potential ZnCl2-induced cell death, a colorimetric method was applied in which the amount of formazan salt that had formed after the conversion of lactate to pyruvate followed by the reduction of tetrazolium salt was proportional to the lactate dehydrogenase (LDH) activity in the sample. All procedures were conducted according to the manufacturer’s protocol (Pierce LDH Cytotoxicity Assay Kit, Thermo Fisher Scientific, Waltham, Massachusetts, USA). In brief, the level of LDH released from damaged cells into the culture medium was measured after a 30-min exposure to different concentrations of ZnCl2 in 96-well plates. Cell-free culture supernatants were collected from each well and incubated with the appropriate substrate mix at RT for 30 min. The intensity of the red color formed in the assay and measured at a wavelength of 490 nm was proportional to the LDH activity and the number of damaged cells. The data were normalized to the activity of LDH released from lysis buffer-treated cells (100%) and expressed as a percent of the total ± SEM from three separate experiments.
The yellow tetrazolium 3-(4,5-dimethylthiazolyl-2)-2,5-diphenyltetrazolium bromide (MTT) is reduced by metabolically active cells, by the action of dehydrogenase enzymes, generating NADH and NADPH. The resulting intracellular purple formazan is then solubilized and quantified by spectrophotometry. […]

muscarinic M2 receptor = system: muscarinic M2 receptor; parameters: method as in PMID 17009927; details: cited from earlier work
[4] = cation at both concentrations, 500 μM and 5 mM

Question: For `[K+]` [K^+], which “effect on the binding of the three tested radioligands” value (from here on “effect on the binding”) (human 5-HT7 receptor [1]; [4]) is on record?
Answer: did not alter

Question: Which “effect on the binding” value (human 5-HT7 receptor [1]; cation 500 μM) does the source give for `[Mg+2]` [Mg^2+] here?
Answer: did not alter

Question: What about the “decrease in radioligand binding relative to the control” value (human 5-HT7 receptor [1]) of the same compound?
Answer: 10 to 20%

Question: With `[Cl-].[Cl-].[Zn+2]` [Zn^2+, ZnCl2] as the compound, how does the “cooperativity factor α” value (human 5-HT7 receptor [2]; vs [3H]5-CT binding) read?
Answer: 0.15

Question: What about the “cooperativity factor α” value (human 5-HT7 receptor [2]; vs [3H]SB-269970 binding) of the same compound?
Answer: 0.06

Question: What about the “cooperativity factor α” value (human 5-HT7 receptor [2]; vs [3H]mesulergine binding) of the same compound?
Answer: 0.25

Question: What about the “effect on the level of [3H]SB-269970 binding” value (human 5-HT7 receptor [1]; cation 500 μM) of the same compound?
Answer: did not influence

Question: And the “reduction of [3H]5-CT binding” value (human 5-HT7 receptor [1]; cation 500 μM)?
Answer: 67%

Question: And the “reduction of [3H]mesulergine binding” value (human 5-HT7 receptor [1]; cation 500 μM)?
Answer: 55%

Question: And the “decrease in radioligand binding relative to the control” value (human 5-HT7 receptor [1])?
Answer: up to 90%

Question: What about the “effect on agonist binding” value (5-HT1A receptor; Zn2+ 10 μM) of the same compound?
Answer: potentiation

Question: And the “effect on agonist binding” value (5-HT1A receptor; Zn2+ 500 μM)?
Answer: inhibition

Question: What about the “effect on constitutive (unstimulated cAMP) activity” value (human 5-HT7b receptor) of the same compound?
Answer: no influence

Question: And the functional profile (human 5-HT7b receptor; zinc concentration up to 10 μM)?
Answer: weak neutral antagonist

Question: And the IC50 (human 5-HT7 receptor [3]; vs [3H]5-CT at fixed concentration (≤K D))?
Answer: 346 µM

Question: And the IC50 (human 5-HT7 receptor [3]; vs [3H]SB-269970 at fixed concentration (≤K D))?
Answer: 1170 µM

Question: What about the IC50 (human 5-HT7 receptor [3]; vs [3H]mesulergine at fixed concentration (≤K D)) of the same compound?
Answer: 241 µM

Question: And the “concentration not affecting the number of living cells” value (HEK293 cells)?
Answer: ≤ 200 µM

Question: With `[Ca+2]` [Ca^2+] as the compound, how does the “effect on the binding” value (human 5-HT7 receptor [1]; cation 500 μM) read?
Answer: did not alter

Question: And the “decrease in radioligand binding relative to the control” value (human 5-HT7 receptor [1])?
Answer: 10 to 20%

Question: Which results are given for `C=CC[N@@+]12CC[C@@]34c5ccccc5N5/C=C6/[C@H]7C[C@H]8[C@@]9(CC[N@@+]8(CC=C)C/C7=C/CO)c7ccccc7N(/C=C(/[C@@H](C[C@@H]31)/C(=C\CO)C2)[C@H]54)[C@@H]69` [alcuronium]?
Answer: change in the affinity of acetylcholine (fold) (muscarinic M2 receptor): 10 fold; change in the affinity of arecoline (fold) (muscarinic M2 receptor): 1.7 fold

Question: Which “effect on the binding” value (human 5-HT7 receptor [1]; [4]) does the source give for `[Na+]` [Na^+] here?
Answer: did not alter

Question: Which “K B” value (human 5-HT7b receptor; Zn2+ 0 μM) does the source give for `CN1C[C@@H](NS(=O)(=O)N(C)C)C[C@@H]2c3cccc4c3c(cn4C)C[C@H]21` [Mesulergine, mesulergine] here?
Answer: 31.05 ± 7.51 nM

Question: What about the “K B” value (human 5-HT7b receptor; Zn2+ 0 μM, listed as mesulergine) of the same compound?
Answer: 31 nM

Question: And the “K B” value (human 5-HT7b receptor; Zn2+ 10 μM)?
Answer: 37.15 ± 6.86 nM

Question: And the “effect on constitutive (unstimulated cAMP) activity” value (human 5-HT7b receptor)?
Answer: inverse agonistic properties
